Measured values reported in the NIST ThermoML archive (doi:10.1021/je1005483).
± gives the expanded uncertainty stated by the source.

Assays:
[1] = xn = mol fraction of the nth substance listed; conditions: 101.3 kPa, Liquid; for speed of sound: 298.15 K
[2] = molar heat capacity at constant pressure; xn = mol fraction of the nth substance listed; conditions: 298.15 K, 101.3 kPa, Liquid, Flow calorimetry

Q: What does the source list for CC1COC(=O)O1 (configuration not stated) [4-methyl-1,3-dioxolan-2-one] + CC#N?
A: speed of sound ([1]; x1 = 0.0502): 1287.5 ± 2.7 m/s; speed of sound ([1]; x1 = 0.1022): 1296.4 ± 2.7 m/s; speed of sound ([1]; x1 = 0.1512): 1305.1 ± 2.7 m/s; speed of sound ([1]; x1 = 0.2006): 1313.9 ± 2.7 m/s; speed of sound ([1]; x1 = 0.3031): 1331 ± 2.7 m/s; speed of sound ([1]; x1 = 0.3051): 1331.6 ± 2.7 m/s; speed of sound ([1]; x1 = 0.4046): 1351.6 ± 2.8 m/s; speed of sound ([1]; x1 = 0.5067): 1369 ± 2.8 m/s; speed of sound ([1]; x1 = 0.6088): 1386.6 ± 2.8 m/s; speed of sound ([1]; x1 = 0.7035): 1399.3 ± 2.9 m/s; speed of sound ([1]; x1 = 0.7037): 1399.4 ± 2.9 m/s; speed of sound ([1]; x1 = 0.7986): 1415.1 ± 2.9 m/s; speed of sound ([1]; x1 = 0.856): 1422.3 ± 2.9 m/s; speed of sound ([1]; x1 = 0.9052): 1427.8 ± 2.9 m/s; speed of sound ([1]; x1 = 0.9518): 1434.5 ± 2.9 m/s; speed of sound ([1]; x1 = 0.9766): 1438 ± 2.9 m/s; speed of sound ([1]; x1 = 1): 1443 ± 2.9 m/s; mass density ([1]; 308.15 K, x1 = 0.00899): 772.153 ± 0.37 kg/m3; mass density ([1]; 308.15 K, x1 = 0.01974): 779.714 ± 0.36 kg/m3; mass density ([1]; 308.15 K, x1 = 0.02827): 785.631 ± 0.35 kg/m3; mass density ([1]; 308.15 K, x1 = 0.03912): 793.054 ± 0.34 kg/m3; mass density ([1]; 308.15 K, x1 = 0.04976): 800.23 ± 0.34 kg/m3; mass density ([1]; 308.15 K, x1 = 0.05955): 806.732 ± 0.33 kg/m3; mass density ([1]; 308.15 K, x1 = 0.06835): 812.468 ± 0.33 kg/m3; mass density ([1]; 308.15 K, x1 = 0.08237): 821.557 ± 0.32 kg/m3; mass density ([1]; 308.15 K, x1 = 0.09065): 826.854 ± 0.31 kg/m3; mass density ([1]; 308.15 K, x1 = 0.09974): 832.541 ± 0.31 kg/m3; mass density ([1]; 308.15 K, x1 = 0.1473): 861.545 ± 0.28 kg/m3; mass density ([1]; 308.15 K, x1 = 0.2018): 892.585 ± 0.26 kg/m3; mass density ([1]; 308.15 K, x1 = 0.2509): 919.09 ± 0.25 kg/m3; mass density ([1]; 308.15 K, x1 = 0.2983): 943.362 ± 0.24 kg/m3; mass density ([1]; 308.15 K, x1 = 0.4008): 991.468 ± 0.25 kg/m3; mass density ([1]; 308.15 K, x1 = 0.4905): 1029.07 ± 0.3 kg/m3; mass density ([1]; 308.15 K, x1 = 0.5979): 1069.65 ± 0.28 kg/m3; mass density ([1]; 308.15 K, x1 = 0.6902): 1101.28 ± 0.28 kg/m3; mass density ([1]; 308.15 K, x1 = 0.7903): 1132.31 ± 0.29 kg/m3; mass density ([1]; 308.15 K, x1 = 0.901): 1163.56 ± 0.31 kg/m3; mass density ([1]; 308.15 K, x1 = 0.9121): 1166.51 ± 0.32 kg/m3; mass density ([1]; 308.15 K, x1 = 0.9218): 1169.02 ± 0.32 kg/m3; mass density ([1]; 308.15 K, x1 = 0.9302): 1171.25 ± 0.33 kg/m3; mass density ([1]; 308.15 K, x1 = 0.9411): 1174.08 ± 0.32 kg/m3; mass density ([1]; 308.15 K, x1 = 0.9504): 1176.45 ± 0.33 kg/m3; mass density ([1]; 308.15 K, x1 = 0.9609): 1179.12 ± 0.33 kg/m3; mass density ([1]; 308.15 K, x1 = 0.9715): 1181.77 ± 0.34 kg/m3; mass density ([1]; 308.15 K, x1 = 0.9815): 1184.24 ± 0.34 kg/m3; mass density ([1]; 308.15 K, x1 = 1): 1188.73 ± 0.34 kg/m3; mass density ([1]; 318.15 K, x1 = 0.00987): 762.8 ± 0.38 kg/m3; mass density ([1]; 318.15 K, x1 = 0.02015): 770.008 ± 0.37 kg/m3; mass density ([1]; 318.15 K, x1 = 0.04049): 783.973 ± 0.35 kg/m3; mass density ([1]; 318.15 K, x1 = 0.04999): 790.403 ± 0.35 kg/m3; mass density ([1]; 318.15 K, x1 = 0.05968): 796.854 ± 0.34 kg/m3; mass density ([1]; 318.15 K, x1 = 0.06983): 803.478 ± 0.33 kg/m3; mass density ([1]; 318.15 K, x1 = 0.07649): 807.807 ± 0.33 kg/m3; mass density ([1]; 318.15 K, x1 = 0.09048): 816.808 ± 0.32 kg/m3; mass density ([1]; 318.15 K, x1 = 0.1015): 823.802 ± 0.31 kg/m3; mass density ([1]; 318.15 K, x1 = 0.1527): 855.059 ± 0.28 kg/m3; mass density ([1]; 318.15 K, x1 = 0.2011): 882.847 ± 0.27 kg/m3; mass density ([1]; 318.15 K, x1 = 0.2502): 909.428 ± 0.25 kg/m3; mass density ([1]; 318.15 K, x1 = 0.2971): 933.541 ± 0.26 kg/m3; mass density ([1]; 318.15 K, x1 = 0.4037): 983.751 ± 0.28 kg/m3; mass density ([1]; 318.15 K, x1 = 0.5036): 1025.46 ± 0.36 kg/m3; mass density ([1]; 318.15 K, x1 = 0.6004): 1061.56 ± 0.45 kg/m3; mass density ([1]; 318.15 K, x1 = 0.7016): 1095.76 ± 0.54 kg/m3; mass density ([1]; 318.15 K, x1 = 0.7997): 1125.73 ± 0.65 kg/m3; mass density ([1]; 318.15 K, x1 = 0.9005): 1153.94 ± 0.3 kg/m3; mass density ([1]; 318.15 K, x1 = 0.9113): 1156.82 ± 0.77 kg/m3; mass density ([1]; 318.15 K, x1 = 0.934): 1162.75 ± 0.78 kg/m3; mass density ([1]; 318.15 K, x1 = 0.9408): 1164.5 ± 0.31 kg/m3; mass density ([1]; 318.15 K, x1 = 0.9519): 1167.38 ± 0.81 kg/m3; mass density ([1]; 318.15 K, x1 = 0.9608): 1169.62 ± 0.32 kg/m3; mass density ([1]; 318.15 K, x1 = 0.9707): 1172.11 ± 0.83 kg/m3; mass density ([1]; 318.15 K, x1 = 0.9815): 1174.79 ± 0.33 kg/m3; mass density ([1]; 318.15 K, x1 = 0.9908): 1177.08 ± 0.86 kg/m3; mass density ([1]; 318.15 K, x1 = 1): 1179.31 ± 0.33 kg/m3; molar heat capacity at constant pressure ([2]; x1 = 0.02042): 93.86 ± 0.58 J/K/mol; molar heat capacity at constant pressure ([2]; x1 = 0.04818): 95.91 ± 0.59 J/K/mol; molar heat capacity at constant pressure ([2]; x1 = 0.08041): 98.29 ± 0.61 J/K/mol; molar heat capacity at constant pressure ([2]; x1 = 0.09602): 99.45 ± 0.61 J/K/mol; molar heat capacity at constant pressure ([2]; x1 = 0.1021): 99.9 ± 0.62 J/K/mol; molar heat capacity at constant pressure ([2]; x1 = 0.1298): 101.95 ± 0.63 J/K/mol; molar heat capacity at constant pressure ([2]; x1 = 0.1438): 103 ± 0.64 J/K/mol; molar heat capacity at constant pressure ([2]; x1 = 0.1521): 103.61 ± 0.64 J/K/mol; molar heat capacity at constant pressure ([2]; x1 = 0.1801): 105.69 ± 0.65 J/K/mol; molar heat capacity at constant pressure ([2]; x1 = 0.193): 106.65 ± 0.66 J/K/mol; molar heat capacity at constant pressure ([2]; x1 = 0.1988): 107.08 ± 0.66 J/K/mol; molar heat capacity at constant pressure ([2]; x1 = 0.3006): 114.62 ± 0.71 J/K/mol; molar heat capacity at constant pressure ([2]; x1 = 0.3994): 121.92 ± 0.75 J/K/mol; molar heat capacity at constant pressure ([2]; x1 = 0.4507): 125.72 ± 0.78 J/K/mol; molar heat capacity at constant pressure ([2]; x1 = 0.4508): 125.72 ± 0.78 J/K/mol; molar heat capacity at constant pressure ([2]; x1 = 0.5997): 136.77 ± 0.84 J/K/mol; molar heat capacity at constant pressure ([2]; x1 = 0.5999): 136.78 ± 0.84 J/K/mol; molar heat capacity at constant pressure ([2]; x1 = 0.6973): 144.05 ± 0.89 J/K/mol; molar heat capacity at constant pressure ([2]; x1 = 0.7485): 147.88 ± 0.91 J/K/mol; molar heat capacity at constant pressure ([2]; x1 = 0.7494): 147.94 ± 0.91 J/K/mol; molar heat capacity at constant pressure ([2]; x1 = 0.8995): 159.26 ± 0.98 J/K/mol; molar heat capacity at constant pressure ([2]; x1 = 0.9004): 159.33 ± 0.98 J/K/mol; molar heat capacity at constant pressure ([2]; x1 = 1): 166.98 ± 1 J/K/mol
